Measurements published in ChEMBL document CHEMBL6092215, “A Prostate-Specific Membrane Antigen-Targeting Small Molecule-Drug Conjugate Strategy to Overcome the Hematological Toxicity of Olaparib” (J Med Chem, 2024).

How the values were obtained:
[1] = Antiproliferative activity against PSMA negative human RWPE-1 cells assessed as effect on cell viability incubated for 72 hrs by MTT assay; format: toxicity, cell-based; conditions: RWPE-1 cells (PSMA negative)
CWR22R = assay: Antiproliferative activity against human 22Rv1 cells with high PSMA expression assessed as effect on cell viability incubated for 72 hrs by MTT assay; format: functional, cell-based; conditions: 22Rv1, 72 h
PC-3 = assay: Antiproliferative activity against PSMA negative human PC-3 cells assessed as effect on cell viability incubated for 72 hrs by MTT assay; format: functional
LNCaP = assay: Antiproliferative activity against human LNCaP cells with high PSMA expression assessed as effect on cell viability incubated for 72 hrs by MTT assay; format: functional, cell-based

Row | Compound | IC50 (LNCaP) [µM] | CC50 at 72 h [1] [µM] | IC50 (CWR22R) [µM] | CC50 (PC-3) [µM]
1 | O=C(O)CC[C@H](NC(=O)N[C@@H](CCCCNC(=O)CCC(=O)N[C@@H](CO)C(=O)N1CCN(C(=O)c2cc(Cc3n[nH]c(=O)c4ccccc34)ccc2F)CC1)C(=O)O)C(=O)O | 202 | > 1000 | 209 | > 1000
2 | O=C(O)CC[C@H](NC(=O)N[C@@H](CCCCNC(=O)CCOC(=O)N1CCN(C(=O)c2cc(Cc3n[nH]c(=O)c4ccccc34)ccc2F)CC1)C(=O)O)C(=O)O | 182 | > 1000 | 289 | > 1000
3 | O=C(O)CC[C@H](NC(=O)N[C@@H](CCCCNC(=O)CCC(=O)N[C@@H](C(=O)N1CCN(C(=O)c2cc(Cc3n[nH]c(=O)c4ccccc34)ccc2F)CC1)c1ccccc1)C(=O)O)C(=O)O | 173 | > 1000 | 162 | > 1000
4 | O=C(O)CC[C@H](NC(=O)N[C@@H](CCCCNC(=O)CCSSCCC(=O)N1CCN(C(=O)c2cc(Cc3n[nH]c(=O)c4ccccc34)ccc2F)CC1)C(=O)O)C(=O)O | 259 | > 1000 | 432 | > 1000
5 | O=C(O)CC[C@H](NC(=O)N[C@@H](CCCCNC(=O)N1CCN(C(=O)c2cc(Cc3n[nH]c(=O)c4ccccc34)ccc2F)CC1)C(=O)O)C(=O)O | 251 | > 1000 | 314 | > 1000
6 | O=C(O)CC[C@H](NC(=O)N[C@@H](CCCCNC(=O)CCCNC(=O)CCCCCCC(=O)N1CCN(C(=O)c2cc(Cc3n[nH]c(=O)c4ccccc34)ccc2F)CC1)C(=O)O)C(=O)O | 238 | > 1000 | 208 | > 1000
7 | O=C(O)CC[C@H](NC(=O)N[C@@H](CCCCNC(=O)CCNC(=O)N1CCN(C(=O)c2cc(Cc3n[nH]c(=O)c4ccccc34)ccc2F)CC1)C(=O)O)C(=O)O | 273 | > 1000 | 327 | > 1000
8 | CSCC[C@H](NC(=O)CCC(=O)NCCCC[C@H](NC(=O)N[C@@H](CCC(=O)O)C(=O)O)C(=O)O)C(=O)N1CCN(C(=O)c2cc(Cc3n[nH]c(=O)c4ccccc34)ccc2F)CC1 | 190 | > 1000 | 175 | > 1000
9 | O=C(O)CC[C@H](NC(=O)N[C@@H](CCCCNC(=O)CCCNC(=O)N1CCN(C(=O)c2cc(Cc3n[nH]c(=O)c4ccccc34)ccc2F)CC1)C(=O)O)C(=O)O | 300 | > 1000 | 337 | > 1000
10 | O=C(O)CC[C@H](NC(=O)N[C@@H](CCCCNC(=O)CCC(=O)N[C@@H](Cc1ccccc1)C(=O)N1CCN(C(=O)c2cc(Cc3n[nH]c(=O)c4ccccc34)ccc2F)CC1)C(=O)O)C(=O)O | 152 | > 1000 | 132 | > 1000
11 | O=C(O)CC[C@H](NC(=O)N[C@@H](CCCCNC(=O)CCN1CCN(C(=O)c2cc(Cc3n[nH]c(=O)c4ccccc34)ccc2F)CC1)C(=O)O)C(=O)O | 284 | > 1000 | 286 | > 1000
12 | O=C(O)CC[C@H](NC(=O)N[C@@H](CCCCNC(=O)CCC(=O)NCCCC(=O)N1CCN(C(=O)c2cc(Cc3n[nH]c(=O)c4ccccc34)ccc2F)CC1)C(=O)O)C(=O)O | 162 | > 1000 | 134 | > 1000
13 | NC(=O)NCCC[C@H](NC(=O)CCC(=O)NCCCC[C@H](NC(=O)N[C@@H](CCC(=O)O)C(=O)O)C(=O)O)C(=O)N1CCN(C(=O)c2cc(Cc3n[nH]c(=O)c4ccccc34)ccc2F)CC1 | 242 | > 1000 | 265 | > 1000
14 | O=C(O)CC[C@H](NC(=O)N[C@@H](CCCCNC(=O)c1cc(Cc2n[nH]c(=O)c3ccccc23)ccc1F)C(=O)O)C(=O)O | 283 | > 1000 | 455 | > 1000

The next molecules have a lower IC50 (LNCaP) than those just listed; values first:

Row | IC50 (LNCaP) [µM] | Compound | CC50 at 72 h [1] [µM] | IC50 (CWR22R) [µM] | CC50 (PC-3) [µM]
15 | 147 | O=C(O)CC[C@H](NC(=O)N[C@@H](CCCCNC(=O)CCC(=O)NCC(=O)N1CCN(C(=O)c2cc(Cc3n[nH]c(=O)c4ccccc34)ccc2F)CC1)C(=O)O)C(=O)O | > 1000 | 126 | > 1000
16 | 136 | CN(CC(=O)N1CCN(C(=O)c2cc(Cc3n[nH]c(=O)c4ccccc34)ccc2F)CC1)C(=O)CCC(=O)NCCCC[C@H](NC(=O)N[C@@H](CCC(=O)O)C(=O)O)C(=O)O | > 1000 | 129 | > 1000
17 | 135 | CC[C@@H](C)[C@H](NC(=O)CCC(=O)NCCCC[C@H](NC(=O)N[C@@H](CCC(=O)O)C(=O)O)C(=O)O)C(=O)N1CCN(C(=O)c2cc(Cc3n[nH]c(=O)c4ccccc34)ccc2F)CC1 | > 1000 | 126 | > 1000
18 | 130 | CC(C)C[C@H](NC(=O)CCC(=O)NCCCC[C@H](NC(=O)N[C@@H](CCC(=O)O)C(=O)O)C(=O)O)C(=O)N1CCN(C(=O)c2cc(Cc3n[nH]c(=O)c4ccccc34)ccc2F)CC1 | > 1000 | 113 | > 1000
19 | 129 | C[C@H](NC(=O)CCC(=O)NCCCC[C@H](NC(=O)N[C@@H](CCC(=O)O)C(=O)O)C(=O)O)C(=O)N1CCN(C(=O)c2cc(Cc3n[nH]c(=O)c4ccccc34)ccc2F)CC1 | > 1000 | 133 | > 1000
20 | 121 | CC(C)[C@@H](NC(=O)CCC(=O)NCCCC[C@H](NC(=O)N[C@@H](CCC(=O)O)C(=O)O)C(=O)O)C(=O)N1CCN(C(=O)c2cc(Cc3n[nH]c(=O)c4ccccc34)ccc2F)CC1 | > 1000 | 128 | > 1000
21 | 111 | CC(C)[C@H](NC(=O)CCC(=O)NCCCC[C@H](NC(=O)N[C@@H](CCC(=O)O)C(=O)O)C(=O)O)C(=O)N1CCN(C(=O)c2cc(Cc3n[nH]c(=O)c4ccccc34)ccc2F)CC1 | > 1000 | 122 | > 1000
22 | 99.9 | O=C(O)CC[C@H](NC(=O)N[C@@H](CCCCNC(=O)CCCCCCC(=O)N1CCN(C(=O)c2cc(Cc3n[nH]c(=O)c4ccccc34)ccc2F)CC1)C(=O)O)C(=O)O | > 1000 | 137 | > 1000
23 | 96.6 | O=C(O)CC[C@H](NC(=O)N[C@@H](CCCCNC(=O)CCCC(=O)N1CCN(C(=O)c2cc(Cc3n[nH]c(=O)c4ccccc34)ccc2F)CC1)C(=O)O)C(=O)O | > 1000 | 139 | > 1000
